According to ChEMBL document CHEMBL1146106, “1-Phenyl-8-azabicyclo[3.2.1]octane ethers: a novel series of neurokinin (NK1) antagonists” (Bioorg Med Chem Lett, 2006):

Columns and labels:
Gerbil, jird [1] = experiment: Inhibition of GR-73632-induced foot tapping in iv dosed gerbils after 24 hrs; format: functional; conditions: Meriones, read-out: ID50 (the source's name)
[2] = molecular target: Voltage-gated inwardly rectifying potassium channel KCNH2 (Homo sapiens, UniProt Q12809); experiment: Displacement of [35S]-labeled MK499 from cloned hERG expressed in HEK cells; format: cell-based, HEK293
Gerbil, jird [3] = experiment: Inhibition of GR-73632-induced foot tapping in iv dosed gerbil; format: functional; conditions: Meriones, read-out: ID50 (the source's name)
Substance-P receptor = Substance-P receptor (Homo sapiens, UniProt P25103); experiment: Displacement of [125I]-labeled substance P from human cloned NK1 receptor expressed in CHO cells; format: cell-based
Gerbil, jird [4] = experiment: Inhibition of GR-73632 induced foot tapping in gerbils at 3 mg/kg, iv after 24 hrs; format: functional; conditions: Meriones
Gerbil, jird [5] = experiment: Inhibition of GR-73632-induced foot tapping in gerbils at 3 mg/kg, iv; format: functional; conditions: Meriones

Sequence of Substance-P receptor (P25103 whole entry): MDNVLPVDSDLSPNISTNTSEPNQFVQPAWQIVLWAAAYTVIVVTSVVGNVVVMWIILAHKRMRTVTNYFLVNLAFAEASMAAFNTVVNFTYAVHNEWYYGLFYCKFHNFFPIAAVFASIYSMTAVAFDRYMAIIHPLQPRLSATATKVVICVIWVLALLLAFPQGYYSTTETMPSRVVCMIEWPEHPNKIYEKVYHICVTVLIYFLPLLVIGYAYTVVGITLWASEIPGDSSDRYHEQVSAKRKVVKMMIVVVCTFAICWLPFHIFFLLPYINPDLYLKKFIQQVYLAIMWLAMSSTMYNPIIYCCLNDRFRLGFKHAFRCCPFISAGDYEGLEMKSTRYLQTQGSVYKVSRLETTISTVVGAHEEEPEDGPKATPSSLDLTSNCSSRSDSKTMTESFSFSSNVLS
Sequence of Voltage-gated inwardly rectifying potassium channel KCNH2 (Q12809 whole entry): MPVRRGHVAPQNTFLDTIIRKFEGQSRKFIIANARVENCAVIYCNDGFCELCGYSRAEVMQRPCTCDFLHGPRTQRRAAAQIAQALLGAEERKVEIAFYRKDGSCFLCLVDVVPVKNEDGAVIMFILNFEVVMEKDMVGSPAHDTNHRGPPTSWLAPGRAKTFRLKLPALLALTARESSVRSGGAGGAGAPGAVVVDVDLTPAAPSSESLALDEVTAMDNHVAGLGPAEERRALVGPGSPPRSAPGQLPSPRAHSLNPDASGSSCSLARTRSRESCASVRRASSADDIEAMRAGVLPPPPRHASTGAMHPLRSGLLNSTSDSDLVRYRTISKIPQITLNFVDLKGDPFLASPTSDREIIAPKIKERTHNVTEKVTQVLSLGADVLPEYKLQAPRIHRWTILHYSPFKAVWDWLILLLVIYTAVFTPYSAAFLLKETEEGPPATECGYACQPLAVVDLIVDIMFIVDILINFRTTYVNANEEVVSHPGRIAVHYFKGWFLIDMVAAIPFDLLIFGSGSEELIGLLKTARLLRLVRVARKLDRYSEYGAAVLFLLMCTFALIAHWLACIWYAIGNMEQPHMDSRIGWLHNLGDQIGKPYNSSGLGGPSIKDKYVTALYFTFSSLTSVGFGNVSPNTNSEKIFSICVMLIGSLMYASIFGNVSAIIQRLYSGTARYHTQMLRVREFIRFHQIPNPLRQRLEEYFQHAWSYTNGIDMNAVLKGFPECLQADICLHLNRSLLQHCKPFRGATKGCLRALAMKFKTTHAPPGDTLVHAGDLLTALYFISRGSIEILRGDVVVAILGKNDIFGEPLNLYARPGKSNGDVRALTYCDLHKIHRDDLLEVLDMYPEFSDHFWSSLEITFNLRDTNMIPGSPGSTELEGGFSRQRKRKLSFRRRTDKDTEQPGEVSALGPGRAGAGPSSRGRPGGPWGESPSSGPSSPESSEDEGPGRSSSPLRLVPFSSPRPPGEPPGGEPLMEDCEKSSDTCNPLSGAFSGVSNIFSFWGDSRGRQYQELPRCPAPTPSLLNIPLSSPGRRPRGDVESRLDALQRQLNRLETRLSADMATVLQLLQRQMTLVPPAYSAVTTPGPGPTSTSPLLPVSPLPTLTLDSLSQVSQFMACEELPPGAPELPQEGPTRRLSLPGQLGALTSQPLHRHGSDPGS

| SMILES | ED50 (Gerbil, jird [1]) [mg/kg] | Ki [2] [nM] | ED50 (Gerbil, jird [3]) [mg/kg] | IC50 (Substance-P receptor) [nM] | inhibition in vivo at 3 mg/kg (Gerbil, jird [4]) [%] | inhibition in vivo at 3 mg/kg (Gerbil, jird [5]) [%] |
| --- | --- | --- | --- | --- | --- | --- |
| Cn1nnc(C2CC3(c4ccccc4)NC2CCC3OCc2cc(C(F)(F)F)cc(C(F)(F)F)c2)n1 (stereo unspecified) | 0.6 | 100 | 0.3 | 1 |  |  |
| C[C@H](OC1CCC2CCC1(c1ccccc1)N2)c1cc(C(F)(F)F)cc(C(F)(F)F)c1 (stereo partly specified) |  |  |  | 200 |  |  |
| Cn1nnc(C2(F)CC3(c4ccccc4)NC2CCC3OCc2cc(C(F)(F)F)cc(C(F)(F)F)c2)n1 (stereo unspecified) |  | > 10000 |  | 1.5 | 11 |  |
| C[C@@H](OC1CCC2NC1(c1ccccc1)CC2S(=O)(=O)c1ccccc1)c1cc(C(F)(F)F)cc(C(F)(F)F)c1 (stereo partly specified) |  |  |  | 0.6 |  | 39 |
| C[C@@H](OC1CCC2CCC1(c1ccccc1)N2)c1cc(C(F)(F)F)cc(C(F)(F)F)c1 (stereo partly specified) |  |  |  | 4.2 |  |  |
| FC(F)(F)c1cc(COC2CCC3CCC2(c2ccccc2)N3)cc(C(F)(F)F)c1 (stereo unspecified) |  | 300 |  | 3 |  |  |
| O=S(=O)(c1ccccc1)C1CC2(c3ccccc3)NC1CCC2OCc1cc(C(F)(F)F)cc(C(F)(F)F)c1 (stereo unspecified) |  | 1300 |  | 2.8 |  |  |
| C[C@@H](OC1CCC2NC1(c1ccccc1)CC2(F)c1nnn(C)n1)c1cc(C(F)(F)F)cc(C(F)(F)F)c1 (stereo partly specified) |  | > 5000 |  | 0.4 | 23 |  |
| C[C@@H](OC1CCC2NC1(c1ccccc1)CC2c1nnn(C)n1)c1cc(C(F)(F)F)cc(C(F)(F)F)c1 (stereo partly specified) | 1.1 | 1800 | 0.4 | 0.5 |  |  |
| C[C@@H](OC1CCC2NC1(c1ccccc1)CC2c1nnnn1C)c1cc(C(F)(F)F)cc(C(F)(F)F)c1 (stereo partly specified) | 0.8 | 2800 | 0.2 | 1.2 |  |  |
